# Measured values as given in patent publication US20230357447A1, “TUMOR ACTIVATED MULTISPECIFIC ANTIBODIES FOR TARGETING CD28 AND PD-L1 AND METHODS OF USE THEREOF” (Janux Therapeutics, Inc., priority 2022, published 2023).
# System: anti-CD28 scFv
# Assay: Phage binding ELISA (panning) of clonal phage on anti-CD28 scFv, with or without CD28 soluble protein
# Settings: Phage binding ELISA; captured anti-CD28 scFv pre-incubated with CD28 soluble protein
# Experimental: Clonal phage were harvested as crude supernatants and screened via standard enzyme linked immunosorbent assays (ELISAs). […] Prior to the addition of clonal phage, wells were incubated with blocking buffer and CD28 soluble protein or blocking buffer alone. Without washing or aspirating, clonal phage supernatants were then added to the wells and incubated for a short time. Wells were then washed followed by detection of bound phage using a horse radish peroxidase conjugated anti-M13 antibody. Clonal phage of interest were then sent for sequence analysis.
row,Substance,CD28 scFv signal in presence of CD28
1,Phage-109 (MDWCPKNLWHVCFN),0.248
2,Phage-113 (MDWCPRDLWNVCFF),0.137
3,Phage-91 (MDWCPRDLWFLCYN),0.424
4,Phage-110 (MDWCPRYLWDECFN),0.283
5,Phage-112 (MHWCPRALWDVCYN),0.240

# Same assay, conditions: Phage binding ELISA; captured biotinylated anti-CD28 scFv, blocking buffer alone
row,Substance,CD28 scFv signal
1,Phage-109 (MDWCPKNLWHVCFN),2.530
2,Phage-113 (MDWCPRDLWNVCFF),2.520
3,Phage-91 (MDWCPRDLWFLCYN),2.587
4,Phage-110 (MDWCPRYLWDECFN),2.529
5,Phage-112 (MHWCPRALWDVCYN),2.528

# Same assay, conditions: Phage binding ELISA; clonal phage supernatant, background wells
row,Substance,Backgroud signal
1,Phage-109 (MDWCPKNLWHVCFN),0.081
2,Phage-158 (MDWCPRYLWTECFF),0.110
3,Phage-144 (MDWCPRHLWYACFN),0.061
4,Phage-143 (LDWCPLNLWDLCYF),0.062
5,Phage-152 (MDWCPKYLWDKCFH),0.073
6,Phage-129 (MDWCPSYLWTVCFA),0.062
7,Phage-155 (MHWCPLHLWNECYH),0.063
8,Phage-135 (MDWCPKFLWHECFS),0.065
9,Phage-90 (MDWCPIDLWHLCFY),0.062
10,Phage-130 (MDWCPRYLWDACFF),0.066
11,Phage-113 (MDWCPRDLWNVCFF),0.164
12,Phage-91 (MDWCPRDLWFLCYN),0.060
13,Phage-127 (MDWCPRALWNECFA),0.080
14,Phage-110 (MDWCPRYLWDECFN),0.069
15,Phage-88 (MDWCPIHLWHYCFN),0.078
16,Phage-114 (MDWCPRYLWFECFA),0.066
17,Phage-100 (MDWCPRYLWTECFN),0.062
18,Phage-150 (MDWCPRHLWNVCFS),0.058
19,Phage-112 (MHWCPRALWDVCYN),0.077

# Same assay, conditions: clonal phage supernatant on captured anti-CD28 scFv pre-incubated with CD28 soluble protein
row,Substance,Phage binding ELISA CD28 scFv signal in presence of CD28
1,Phage-77 (MDWCPFYLWDECFN),0.291
2,Phage-84 (MDWCPKYLWSVCFF),0.826
3,Phage-65 (MDWCPMYLWNECFN),0.471
4,Phage-47 (MAWCPVYLWHECFN),0.351

# Same assay, conditions: clonal phage supernatant on captured biotinylated anti-CD28 scFv; blocking buffer alone
row,Substance,Phage binding ELISA CD28 scFv signal
1,Phage-77 (MDWCPFYLWDECFN),2.672
2,Phage-84 (MDWCPKYLWSVCFF),2.622
3,Phage-65 (MDWCPMYLWNECFN),2.609
4,Phage-47 (MAWCPVYLWHECFN),2.273

# Same assay, conditions: clonal phage supernatant; background (no anti-CD28 scFv signal)
row,Substance,Phage binding ELISA Backgroud signal
1,Phage-438 (MDWCPMSRWAFCFD),0.071
2,Phage-451 (MDWCPRFWWHECYA),0.246
3,Phage-430 (IHLCHWVPWIKCSH),2.516
4,Phage-432 (IDWCPIIQGLPCFA),0.058
5,Phage-382 (ITWCPTSLWNRCLV),0.077
6,Phage-402 (MDWCPRHMWHECFH),0.067
7,Phage-422 (MYWCPINMWDYCYA),0.122
8,Phage-431 (MAWCPADQWHECFN),0.076
9,Phage-423 (INLCPTPMWNRCWL),0.119
10,Phage-419 (VDWCPAHMWNECYN),0.208
11,Phage-426 (MFLCPSAMWNRCFY),0.069
12,Phage-391 (MDWCPFDMWADCFF),0.063
13,Phage-428 (MNWCPSTMWNRCLT),0.067
14,Phage-414 (LYWCPRDMWAYCYS),0.068
15,Phage-388 (MDWCPRFMWNFCFF),2.200
16,Phage-386 (NHWCPTTLWNRCVA),0.293
17,Phage-384 (IMWCPTSLWNRCVT),0.104
18,Phage-433 (MAWCPWAQFDECLA),0.073
19,Phage-417 (IYWCPTAMWNRCSA),0.086

# Same assay, conditions: clonal phage supernatant; background signal
row,Substance,Phage binding ELISA Backgroud signal
1,Phage-173 (MDWCPMNLWSECFN),0.168
2,Phage-321 (MDWCPRDLWYVCFA),0.095
3,Phage-77 (MDWCPFYLWDECFN),0.092
4,Phage-352 (MDWCPIHLWYECFN),0.080
5,Phage-363 (MNWCPMHLWAECFN),0.087
6,Phage-171 (MNWCPSHLWHMCYF),0.195
7,Phage-192 (DVWCPKYMWSLCFN),0.101
8,Phage-307 (MDWCPRYLWPVCFH),0.179
9,Phage-279 (MDWCPRYLWAECFN),0.068
10,Phage-361 (MHWCPRHLWSECFN),0.165
11,Phage-189 (VDWCPRYLWHVCYN),0.064
12,Phage-48 (IDWCPRYLWDECYN),0.061
13,Phage-339 (MDWCPRTLWDQCFF),0.088
14,Phage-51 (MDWCPMDLWDYCFN),0.071
15,Phage-183 (IDWCPRDLWALCFN),0.127
16,Phage-204 (MDWCPRHMWNVCFS),0.067
17,Phage-285 (MDWCPRDLWAMCFA),0.071
18,Phage-300 (MDWCPRHLWFECFF),0.178
19,Phage-354 (MDWCPRYLWLECFN),0.083
20,Phage-263 (MDWCPRHMWHECFA),0.074
21,Phage-294 (MDWCPRSLWDYCFA),0.115
22,Phage-178 (LDWCPRDLWHVCFF),0.176
23,Phage-167 (MSWCPQDLWHVCFN),0.095
24,Phage-61 (MVSCPTTMWNRCFN),0.079
25,Phage-376 (MDWCPRHLWTYCFH),0.109

row,Substance,Phage binding ELISA Backgroud signal
1,Phage-193 (MDWCPMDMWVNCFN),0.059
2,Phage-207 (MDWCPRAMWHECFY),0.069
3,Phage-209 (IDWCPQDMWFYCFN),0.069
4,Phage-214 (MDWCPTYMWSECFN),0.086
5,Phage-45 (MDWCPRPLWHECFS),0.078
6,Phage-343 (MDWCPRDLWTQCFF),0.065
7,Phage-79 (MDWCPRDLWHECFS),0.066
8,Phage-347 (MDWCPLFLWDQCFN),0.116
9,Phage-266 (VTSCPTTMWNRCFS),0.396
10,Phage-163 (MFWCPRYLWHECFN),0.086
11,Phage-301 (MDWCPRYLWHECFF),0.082
12,Phage-196 (MDWCPRYMWYQCFS),0.079
13,Phage-169 (MDWCPRDLWNVCFN),0.100
14,Phage-84 (MDWCPKYLWSVCFF),0.184
15,Phage-65 (MDWCPMYLWNECFN),0.064
16,Phage-236 (MDWCPRDLWNLCFF),0.084
17,Phage-368 (MSWCPPYLWTVCYN),0.176
18,Phage-199 (MDWCPRNMWAQCFA),0.102
19,Phage-256 (MDWCPFDLWHVCYN),0.089
20,Phage-251 (MDWCPRFMWSECFS),0.092
21,Phage-198 (MDWCPRAMWNHCFN),0.321
22,Phage-73 (MDWCPRALWHECFN),0.071
23,Phage-220 (FDFCPTTMWTYCQH),0.084
24,Phage-265 (MDWCPRFMWDLCFA),0.270
25,Phage-63 (MDWCPRALWAECFN),0.068

row,Substance,Phage binding ELISA Backgroud signal
1,Phage-252 (MDWCPRHMWINCFA),0.091
2,Phage-168 (MDWCPKDLWHECFN),0.073
3,Phage-243 (MDWCPRHLWYECFN),0.063
4,Phage-345 (MDFCPRFLWHECFN),0.063
5,Phage-47 (MAWCPVYLWHECFN),0.094
6,Phage-270 (MDWCPRDFWAFCFF),0.118
7,Phage-348 (MAWCPWYLWDECFN),0.200
8,Phage-275 (MDWCPRDHWVDCYS),0.172
9,Phage-229 (VPWCQIISGLECLT),0.076
10,Phage-57 (MDWCPRHRWVDCFY),0.073
11,Phage-71 (MDWCPRYLWHECFA),0.071
12,Phage-282 (MDWCPRDLWFACFA),0.060
13,Phage-271 (MDWCPTSFWNRCFH),0.102
14,Phage-364 (MDWCPRSLWAQCFY),0.067
15,Phage-378 (MHWCPLHLWNECFA),0.065
16,Phage-288 (MDWCPIALWDFCFA),0.073
17,Phage-286 (MERCPRYLWHMCYS),0.164
18,Phage-206 (IHWCPINMWDKCYN),0.060
19,Phage-302 (MDWCPRYLWHVCFD),0.068
20,Phage-86 (MDWCPRHLWAECFF),0.066
21,Phage-281 (MDWCPRSLWFLCFN),1.110
22,Phage-239 (MDWCPRYLWHVCFN),0.187
23,Phage-234 (MDWCPRALWFECFF),0.111
24,Phage-80 (MDWCPMYLWNECFS),0.071
25,Phage-223 (MDWCPRDRWVDCFF),0.066
